Laboratory results taken from patent US10894777B2, “TG2 inhibitor piperazine compounds and uses thereof” (UNIVERSITY OF OTTAWA, priority 2016, dated 2021).

How the values were obtained:
[1] = target: T1, TG2 (Homo sapiens, UniProt P21980); test: BODIPY FL GTP-γ-S binding assay; settings: NC9 120 μM, VA4 40 μM, VA5 40 μM; plus 0.5 mM CaCl2; 1 μM GTP-γ-S FL BODIPY
T1 sequence (P21980 1-687): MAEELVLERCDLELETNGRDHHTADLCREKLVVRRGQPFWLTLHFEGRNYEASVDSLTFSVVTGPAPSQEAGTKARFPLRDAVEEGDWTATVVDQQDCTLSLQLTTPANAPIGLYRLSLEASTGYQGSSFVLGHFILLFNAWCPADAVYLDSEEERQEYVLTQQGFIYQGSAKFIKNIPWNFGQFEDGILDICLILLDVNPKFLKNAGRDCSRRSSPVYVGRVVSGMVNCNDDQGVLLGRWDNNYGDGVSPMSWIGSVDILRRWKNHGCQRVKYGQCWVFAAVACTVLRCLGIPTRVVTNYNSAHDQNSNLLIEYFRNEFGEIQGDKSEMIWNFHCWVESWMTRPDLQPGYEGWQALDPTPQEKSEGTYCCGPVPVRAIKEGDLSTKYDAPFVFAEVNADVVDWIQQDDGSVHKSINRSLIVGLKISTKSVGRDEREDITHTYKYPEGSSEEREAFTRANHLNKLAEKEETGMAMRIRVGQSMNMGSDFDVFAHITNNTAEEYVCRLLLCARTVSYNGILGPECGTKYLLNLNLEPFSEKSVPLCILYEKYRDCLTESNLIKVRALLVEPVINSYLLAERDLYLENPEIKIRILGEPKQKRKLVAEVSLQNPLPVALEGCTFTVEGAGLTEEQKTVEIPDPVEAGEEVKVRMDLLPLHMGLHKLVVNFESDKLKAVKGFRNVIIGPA
Protocol: BODIPY FL GTP-γ-S binding assay. GTP binding was performed using a similar method as reported previously (McEwen, D. P. et al., Anal. […] TG2 (9 μg) was incubated with BODIPY GTP-γ-S at 25° C. for 10 min in 100 mM MOPS (pH=7.0) and 5 mM MgCl2 followed by addition of H2O, inhibitor alone or inhibitor plus 0.5 mM CaCl2. […] After 45 min incubation, fluorescence was then measured on a microplate reader (ex: 490 nm, em: 520 nm).

[2] = target: T1, TG2; test: In situ TG2 transamidase activity assay (fluorescein cadaverine incorporation), SCC-13 cells; format: cell-based; set-up: endogenous in cells; host or cells: SCC-13; settings: for FC incorporation (TG2 transamidase activity): 20 μM 30 min, then A23187 90 min
Protocol: Insitu TG2 activity assay. Cells (40,000) were plated in 24-well attachment dishes in spheroid media and grown until 50% confluent. Fluorescein cadaverine (FC) was added in 2 mL of serum-free medium at a final concentration of 20 μM and incubated for 4 hours. The wells were washed twice with serum-free spheroid medium, and then 2 mL of fresh serum-free medium was added containing 0-20 μM NC9. After 30 min, the wells were supplemented with 10 μM A23187. Cells were incubated for an additional 90 min and then washed three times with Ca^++/Mg^++-free HBSS, fixed with formalin, and washed with phosphate-buffered saline and imaged to detect fluorescein.
(§1) In situ TG2 transamidase activity assay. Cells (40,000) were plated in 24-well attachment dishes in spheroid media and grown until 50% confluent. FC was added in 2 ml of serum-free medium at a final concentration of 20 μM and incubated for 4 h. […] After 30 min, the wells were supplemented with 10 NM A23187, a calcium ionophore.

[3] = test system: SCC-13, HaCaT, A431, TU159, HNSCC3 cells; test: Spheroid formation, matrigel invasion and migration assays in five cell lines (Example 11); format: cell-based, human; settings: FIGS. 38-42
Protocol: SCC13 cells were grown for one week as monolayer in spheroid media; cells were harvested with 0.25% trypsin and plated with 2 mL of spheroid media at 15,000 cells per well in a 6-well dish. Cells were counted on day 0 and then treated with the indicated concentration of the indicated compound. Control was 0.1% DMSO. Cells were counted using a cell counter, 2 wells per treatment on each day. Values shown are mean±SEM, n=1.
(§2) HaCaT cells were grown for one week as a monolayer in spheroid media. Cells were harvested with 0.25% trypsin and plated with 2 mL of spheroid media at 15,000 cells per well in a 6-well dish. Cells were counted on day 0 and then treated with the indicated concentration of the indicated compound. Control was 0.1% DMSO. Cells were counted using a cell counter, 2 wells per treatment on each day. Values shown are mean±SEM, n=1.
as §2, with “A431” for “HaCaT”
TU159 cells were harvested with 0.25% trypsin and plated with 2 mL of spheroid media at 40,000 cells per well in a 6 well low-attachment plate. The cells were grown as spheroids for 8 days. On day 8 the spheroids were treated with the indicated concentration of the indicated compound. Control was 0.1% DMSO. The same 2 wells per treatment were counted on each day. Values shown are mean±SEM, n=1.
as §2, with “HNSCC3” for “HaCaT”, “The same” for “Cells were counted using a cell counter,”, “treatment were counted” for “treatment”, “n=1. […]” for “n=1.”

[4] = target: T1, TG2; test: In situ TG2 transamidase activity (FC incorporation), HaCaT cells; format: cell-based; set-up: endogenous in cells
Protocol: HaCaT cells were electroporated with mCer-TG2 or mCer-TG2-YAP and then treated with 0 or 5 μM of the indicated inhibitor and fluorescent lifetime was monitored. […] HaCaT cells were preloaded with fluorescein cadaverine, treated with the indicated inhibitor and then challenged with calcium ionophore, washed and assayed for FC incorporation. […] HaCaT were incubated for 48 h with the indicated inhibitor and extracts were prepared and incubated with GTP-agarose beads to measure TG2 binding to GTP agarose. The beads were then washed, boiled in Laemmli buffer and electrophoresed for immunoblot detection of TG2. Cell equivalent quantities of total and bound samples were electrophoresed to facilitate comparison of GTP bound versus total. […] Experiments were performed as described in FIGS. 31 (F) and (G).
as §1

Row | Compound | GTP binding to TG2 [1] | FC incorporation (TG2 transamidase activity) [2] | spheroid formation, matrigel invasion and migration [3] | TG2 transamidase activity (FC incorporation) [4] | TG2 transamidase activity (FC incorporation) ([2]; 20 μM NC9, calcium ionophore)
1 | C=CC(=O)NCCCC[C@H](NC(=O)OCc1ccccc1)C(=O)N1CCN(C(=O)c2cc3ccc(O)cc3oc2=O)CC1 [VA5, (S)-Benzyl(6-acrylamido-1-(4-(7-hydroxy-2-oxo-2H-chromene-3-carbonyl)piperazin-1-yl)-1-oxohexan-2-yl)carbamate] | inhibit GTP binding to TG2 almost completely | drastically reduced | inhibit spheroid formation, matrigel invasion and migration | suppressed TG2 transamidase activity | 
2 | C=CC(=O)NCCCC[C@H](NC(=O)OCc1ccccc1)C(=O)N1CCN(S(=O)(=O)c2cccc3c(N(C)C)cccc23)CC1 [VA4, (S)-benzyl(6-acrylamido-1-(4-((5-(dimethylamino)naphthalen-1-yl)sulfonyl)piperazin-1-yl)-1-oxohexan-2-yl)carbamate] | inhibit GTP binding to TG2 almost completely | drastically reduced | inhibit spheroid formation, matrigel invasion and migration | suppressed TG2 transamidase activity | 
3 | C=CC(=O)NCCCC[C@H](NC(=O)OCc1ccccc1)C(=O)NCCOCCOCCNS(=O)(=O)c1cccc2c(N(C)C)cccc12 [NC9] | inhibit GTP binding to TG2 almost completely | drastically reduced | inhibit spheroid formation, matrigel invasion and migration | suppressed TG2 transamidase activity | reduced
